# According to patent US20050153872A1, “Methods and compositions for the treatment of infection” (priority 2004, published 2005):
# What was measured:
# [1] = system: S. pneumoniae ATCC 700671 (Penicillin-resistant SP); conditions: 5 ug/ml
# [2] = system: ATCC 700671 PRSP (S. pneumoniae); assay: In vivo protection effects of Ph-SP; parameters: species or system mice; conditions: for Death distribution in hours 24 h / Death distribution in hours 48 h / Death distribution in hours 72 h / Death distribution in hours 96 h / Death distribution in hours 120 h / Death distribution in hours 144 h / Death distribution in hours 168 h / Number of Death: 5 animals
# Method: To assess the in vivo effect of Ph-SP, mice were injected with ATCC 700671 PRSP intraperitoneally, followed by intravenous injections of PH-SP or controls.
# One hour after administration of the fatal dose of ATCC 700671 PRSP (10^5 CFU/ml), each mouse was injected through the tail vein with test agents at three dosages as described in Table 4.
# ATCC 700802 VRE cells = assay: Ph-EF protection of ATCC 700802 infected mice; assay type: in vivo; conditions: 5 animals
# Method: To assess in vivo effects of Ph-EF, mice were injected with a fatal dosage of ATCC 700802 VRE cells intraperitoneally. […] Mice were inspected every 24 hours for 7-14 days. Dead mice would be counted as positive results.
# [3] = system: Staphylococcus aureus MRSA 02-18; assay: microbe, parasite or virus in culture; assay type: cell-based; conditions: Staphylococcus aureus MRSA 02-18
# [4] = system: Staphylococcus aureus MRSA BAA-42; assay: microbe, parasite or virus in culture; assay type: cell-based; conditions: Staphylococcus aureus MRSA BAA-42
# Escherichia coli 02-1-65 [5] = assay: In vivo protection of infected mice; parameters: species or system Kungming mice; conditions: i.p. infection 3.3 × 10^5 cfu/ml
# Method: (§1) The following experiments were performed by Pharmacology Lab, National Sichuan antibiotic industril institute, Chengdu, Sichuan.
# (§2) The agents described above were diluted with sterilized water to final concentrations of 10 mg/L, 5 mg/Land 2.5 mg/L. […]
# (§3) 170 mice (Kungming mice: 18˜22 g, 85 males and 85 females) were randomly divided into four groups and injected with a fatal dosage of staphylococci, enterococcus and E. coli intraperitoneally. […] Mice were inspected every 24 hours for 7-14 days. Dead mice were counted as positive results. The results are depicted in Table 3 and FIGS. 4 and 5A-B.
# [6] = system: Staphylococcus aureus ATCC 29213; assay: In vivo protection of infected mice; parameters: species or system Kungming mice; conditions: i.p. infection 3.6 × 10^5 cfu/ml
# Method: as §1, §2, §3
# [7] = system: Enterococcus faecalis ATCC 700802; assay: microbe, parasite or virus in culture; assay type: cell-based; conditions: Enterococcus faecalis, ATCC700802
# [8] = system: Staphylococcus aureus MRSA 02-18; assay: In vivo protection of infected mice; parameters: species or system Kungming mice; conditions: mice, i.p. infection 1.7 × 10^5 cfu/ml
# Method: as §1
# (§4) The agents described above were diluted with sterilized water to final concentrations of 10 mg/L, 5 mg/Land 2.5 mg/L.
# (§5) Staphylococcus aureus ATCC BAA-42(MRSA) and enterococcus faecalis ATCC 700802 were used as control strains.
# as §3
# [9] = system: Staphylococcus aureus MRSA BAA-42; assay: In vivo protection of infected mice; parameters: species or system Kungming mice; conditions: mice, i.p. infection 5.5 × 10^5 cfu/ml
# Method: as §1, §4, §5, §3
# [10] = system: Enterococcus faecalis ATCC 700802; assay: In vivo protection of infected mice; parameters: species or system Kungming mice; conditions: mice, i.p. infection 8.0 × 10^6 cfu/ml
# Method: as §1, §4, §5, §3
# [11] = system: Staphylococcus aureus ATCC 29213; assay: MIC against challenge strain (Table 3); assay type: cell-based
# Escherichia coli 02-1-65 [12] = assay: MIC against challenge strain (Table 3); assay type: cell-based
# [13] = system: Staphylococcus aureus MSSA strain (88); assay: In vitro antibacterial activity (MIC), clinical isolates; assay type: cell-based; conditions: 88 MSSA clinical isolates
# Method: (§6) The following experiments were performed by Lab. of Pharmacology, National Sichuan antibiotic industril institute, Chengdu, Sichuan.
# (§7) The following agents were used to test the in vitro activity of Ph-SA:
# (§8) All the bacterial strains used in the experiments were clinical isolates collected from Sichuan and Beijing in 2002 and identified by West China Hospital, Sichuan University and Chongqing University of Medical Sciences with API system. The following strains were used in the experiments detailed below: Staphylococcus aureus 168 strains (MRSA 80 strains and MSSA 88 strains) Staphylococcus epidermidis 46 strains (MRSE 25 strains and MSSE 21 strains), Enterococcus 20 strains, and Acenetobactor 20 strains. Staphylococcus aureus ATCC25923, 29213 and BAA-42 were used as control strains. Bacterial strains were contacted with one of the above described compounds and MIC50, MIC90 and MICScope were determined.
# [14] = system: Staphylococcus aureus MRSA strain (80); assay: as above; assay type: cell-based; conditions: 80 MRSA clinical isolates
# Method: as §6, §7, §8
# Enterococcus (20) = assay: as above; assay type: cell-based; conditions: 20 Enterococcus clinical isolates
# Method: as §6, §7, §8
# [15] = system: Staphylococcus epidermidis MSSE strain (21); assay: as above; assay type: cell-based; conditions: 21 MSSE clinical isolates
# Method: as §6, §7, §8
# [16] = system: vancomycin-sensitive Enterococcus ATCC29212; conditions: 3 ug/ml; ATCC 29212 cells
# [17] = system: S. pneumoniae BQIOC 31201 (non-resistant)
# MRSA strain ATCC BAA-42 = assay: Electron micrographs of bactericidal effects; assay type: cell-based, S. aureus; conditions: Ph-SA 50 μg/ml 0.5 hrs; wild type colicin Ia 50 μg/ml 2 hrs; AgrDI 10 μg/ml 2 hrs
# Description: Electron Micrographs of Bactericidal Effects of Ph-SA1 Against ATCC BAA-42 MRSA Strain Cells (1% Phosphotungstic Acid. 25,000×)
# [18] = 1st Time, i.v. treatment after one hour
# [19] = 2nd Time (value in parentheses), i.v. treatment
molecule,measurement,setting,value
sodium penicillin,inhibition of cell growth,[1],did not have a growth inhibitory effect
same,Death distribution in hours 24 h,[2]; 5 mg/kg tail vein,3
same,Death distribution in hours 48 h,[2]; 5 mg/kg tail vein,0
same,Death distribution in hours 72 h,[2]; 5 mg/kg tail vein,0
same,Death distribution in hours 96 h,[2]; 5 mg/kg tail vein,0
same,Death distribution in hours 120 h,[2]; 5 mg/kg tail vein,0
same,Death distribution in hours 144 h,[2]; 5 mg/kg tail vein,0
same,Death distribution in hours 168 h,[2]; 5 mg/kg tail vein,0
same,Number of Death,[2]; 5 mg/kg tail vein,3
same,Death distribution in hours 24 h,[2]; 10 mg/kg tail vein,3
same,Death distribution in hours 48 h,[2]; 10 mg/kg tail vein,0
same,Death distribution in hours 72 h,[2]; 10 mg/kg tail vein,0
same,Death distribution in hours 96 h,[2]; 10 mg/kg tail vein,0
same,Death distribution in hours 120 h,[2]; 10 mg/kg tail vein,0
same,Death distribution in hours 144 h,[2]; 10 mg/kg tail vein,0
same,Death distribution in hours 168 h,[2]; 10 mg/kg tail vein,0
same,Number of Death,[2]; 10 mg/kg tail vein,3
same,Death distribution in hours 24 h,ATCC 700802 VRE cells; 5 mg/kg intravenously,0
same,Death distribution in hours 48 h,ATCC 700802 VRE cells; 5 mg/kg intravenously,1
same,Death distribution in hours 72 h,ATCC 700802 VRE cells; 5 mg/kg intravenously,1
same,Death distribution in hours 96 h,ATCC 700802 VRE cells; 5 mg/kg intravenously,1
same,Death distribution in hours 120 h,ATCC 700802 VRE cells; 5 mg/kg intravenously,0
same,Death distribution in hours 144 h,ATCC 700802 VRE cells; 5 mg/kg intravenously,0
same,Death distribution in hours 168 h,ATCC 700802 VRE cells; 5 mg/kg intravenously,0
same,Number of Death,ATCC 700802 VRE cells; 5 mg/kg intravenously,3
same,Death distribution in hours 24 h,ATCC 700802 VRE cells; 10 mg/kg intravenously,0
same,Death distribution in hours 48 h,ATCC 700802 VRE cells; 10 mg/kg intravenously,0
same,Death distribution in hours 72 h,ATCC 700802 VRE cells; 10 mg/kg intravenously,0
same,Death distribution in hours 96 h,ATCC 700802 VRE cells; 10 mg/kg intravenously,0
same,Death distribution in hours 120 h,ATCC 700802 VRE cells; 10 mg/kg intravenously,0
same,Death distribution in hours 144 h,ATCC 700802 VRE cells; 10 mg/kg intravenously,0
same,Death distribution in hours 168 h,ATCC 700802 VRE cells; 10 mg/kg intravenously,0
same,Number of Death,ATCC 700802 VRE cells; 10 mg/kg intravenously,0
same,MIC,[3],>16 µg/mL
same,MIC,[4],8 µg/mL
same,ED50,Escherichia coli 02-1-65 [5]; [18],>30.77 mg/kg
same,ED50,Escherichia coli 02-1-65 [5]; [19],(>30.77) mg/kg
same,ED50,[6]; [18],10.75 mg/kg
same,ED50,[6]; [19],(9.84) mg/kg
same,MIC,[7],2 µg/mL
same,ED50,[8]; [18],7.28 mg/kg
same,ED50,[8]; [19],(11.33) mg/kg
same,ED50,[9]; [18],>10 mg/kg
same,ED50,[9]; [19],(14.71) mg/kg
same,ED50,[10]; [18],3.16 mg/kg
same,ED50,[10]; [19],(3.08) mg/kg
same,MIC,[11],16 µg/mL
same,MIC,Escherichia coli 02-1-65 [12],>128 µg/mL
same,MIC50,[13],8 µg/mL
same,MIC90,[13],64 µg/mL
same,MIC Scope,[14],1˜128 mg/l
same,MIC50,Enterococcus (20),32 µg/mL
same,MIC90,Enterococcus (20),64 µg/mL
same,MIC50,[15],4 µg/mL
same,MIC90,[15],32 µg/mL
same,MIC Scope,[15],0.125˜128 mg/l
same,inhibition of cell growth,[16],inhibited cell growth
"wild type colicin Ia: wild type colicin Ia, channel forming polypeptide without targeting agent (protein, E. coli, wild type colicin Ia, channel forming polypeptide without targeting agent) MSDPVARGITNPGAESLGYDSDGHEIMAVASPIYVASNPPRVASPVFHGTPPAWSSFGNKTIWGGNEWVASPDSPTRSDIEKRDKEITAYKNTLSAQQKENENKRTEAGKRLSAAIAAREKDENTLKTLRAGNADAADITRQEFRLLQAELREYGFRTEIAGYDALRLHTESRMLFADADSLRISPREARSLIEQAEKRQKDAQNADKKAADMLAEYERRKGILDTRLSELEKNGGAALAVLDAQQARLLGQQTRNDRAISEARNKLSSVTESLNTARNALTRAEQQLTQQKNTPDGKTIVSPEKFPGRSSTNHSIVVSGDPRFAGTIKITTSAVIDNRANLNYLLSHSGLDYKRNILNDRNPVVTEDVEGDKKIYNAEVALAEWDKLRQRLLDARNKITSAESAVASNSARNNLSARTNEQKHANDALNALLKEKENIRNQLSGINQKIAEEKRKQDELKATKDAINFTTEFLKSVSEKYGAKAEQLAREMAGQAKGKKIRNVEEALKTYEKYRADINKKINAKDRAAIAAALESVKLSDISSNLNRFSRGLGYAGKFTSLADWITEFGKAVARGTENWRPLFVKTETIIAGNAATALVALALVFSILTGSALGIIGYGLLMAVTGALIDESLVEKANKFWGI",inhibition of cell growth,"[17]; 5 ug/ml, S. pneumoniae BQIOC 31201",did not inhibit growth
same,bactericidal effect / effect on cell growth (electron micrographs),MRSA strain ATCC BAA-42,no effect on cell growth
same,inhibition of cell growth,[16],failed to inhibit growth
"Ph-SP: Colicin Ia linked to ComC pheromone of S. pneumoniae (protein, colicin Ia attached to streptococcus pneumoniae polypeptide pheromone) SDPVARGITNPGAESLGYDSDGHEIMAVASPIYVASNPPRVASPVFHGTPPAWSSFGNKTIWGGNEWVASPDSPTRSDIEKRDKEITAYKNTLSAQQKENENKRTEAGKRLSAAIAAREKDENTLKTLRAGNADAADITRQEFRLLQAELREYGFRTEIAGYDALRLHTESRMLFADADSLRISPREARSLIEQAEKRQKDAQNADKKAADMLAEYERRKGILDTRLSELEKNGGAALAVLDAQQARLLGQQTRNDRAISEARNKLSSVTESLNTARNALTRAEQQLTQQKNTPDGKTIVSPEKFPGRSSTNHSIVVSGDPRFAGTIKITTSAVIDNRANLNYLLSHSGLDYKRNILNDRNPVVTEDVEGDKKIYNAEVALAEWDKLRQRLLDARNKITSAESAVASNSARNNLSARTNEQKHANDALNALLKEKENIRNQLSGINQKIAEEKRKQDELKATKDAINFTTEFLKSVSEKYGAKAEQLAREMAGQAKGKKIRNVEEALKTYEKYRADINKKINAKDRAAIAAALESVKLSDISSNLNRFSRGLGYAGKFTSLADWITEFGKAVARGTENWRPLFVKTETIIAGNAATALVALALVFSILTGSALGIIGYGLLMAVTGALIDESLVEKANKFWGIEMRLSKFFRDFILQRKK",inhibition of cell growth,[1],more than 90%
same,Death distribution in hours 24 h,[2]; 5 mg/kg tail vein,0
same,Death distribution in hours 48 h,[2]; 5 mg/kg tail vein,1
same,Death distribution in hours 72 h,[2]; 5 mg/kg tail vein,0
same,Death distribution in hours 96 h,[2]; 5 mg/kg tail vein,0
same,Death distribution in hours 120 h,[2]; 5 mg/kg tail vein,0
same,Death distribution in hours 144 h,[2]; 5 mg/kg tail vein,0
same,Death distribution in hours 168 h,[2]; 5 mg/kg tail vein,0
same,Number of Death,[2]; 5 mg/kg tail vein,1
same,Death distribution in hours 24 h,[2]; 10 mg/kg tail vein,0
same,Death distribution in hours 48 h,[2]; 10 mg/kg tail vein,0
same,Death distribution in hours 72 h,[2]; 10 mg/kg tail vein,0
same,Death distribution in hours 96 h,[2]; 10 mg/kg tail vein,0
same,Death distribution in hours 120 h,[2]; 10 mg/kg tail vein,0
same,Death distribution in hours 144 h,[2]; 10 mg/kg tail vein,0
same,Death distribution in hours 168 h,[2]; 10 mg/kg tail vein,0
same,Number of Death,[2]; 10 mg/kg tail vein,0
same,protection against infection in mice,"[2]; ATCC 700671 PRSP i.p., agent i.v.",prevents streptococcus pneumoniae infection in mice
same,bactericidal effect relative to penicillin on a molar basis,"[17]; Ph-SP 70,000 daltons vs penicillin 350 daltons",two hundred fold greater
